Drawing on the NIST ThermoML archive (doi:10.1021/acs.jced.7b00083), this text covers molar enthalpy for one molecule.

± gives the expanded uncertainty stated by the source.

The data set is described as follows: molar enthalpy of vaporization or sublimation. The settings on record: 298.15 K; Crystal; Static calorimetry.

With `S=C1NCCN1` [imidazolidine-2-thione], the molar enthalpy was 25.7 ± 0.359 kcal/mol.
